The source of these data is patent US8933228B2, “Respiratory formulations and compounds for use therein” (Respivert, Ltd., priority 2010, dated 2015).

pEC50, pIC50: −log10 of the molar value. Bounds are passed on as bounds.

In data set [1] the target is p38 MAPK alpha (MAPK14) (Homo sapiens (Human), UniProt Q16539). In words: Enzyme inhibition assay (FRET, Z-LYTE), p38 MAPK alpha via MAPKAP-K2 activation. It is filed as biochemical. Conditions: read-out: Enzyme Profile: IC50 Values p38α. Summed up: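 Recombinant p38 MAPKα was preincubated with compound 2 hr at RT. Its activity was measured indirectly through MAPKAP-K2 activation/phosphorylation, read by Z-LYTE FRET after 1 hr protease development. Phosphorylation was taken from the coumarin/fluorescein emission ratio.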

For data set [2], the target named is p38 MAPK γ (MAPK12) (Homo sapiens (Human), UniProt P53778). In words: Enzyme inhibition assay (FRET, Z-LYTE), p38 MAPK gamma. It is filed as biochemical. Conditions: read-out: Enzyme Profile: IC50 Values p38γ. The procedure, abridged: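 Recombinant phosphorylated human p38γ preincubated with compound 2 hr at RT in HEPES buffer, then reacted 1 hr with 2 μM FRET peptide and 100 μM ATP. Protease development 1 hr; phosphorylation derived from coumarin/fluorescein emission ratio.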

Data set [3] concerns the target HCK enzyme (Homo sapiens (Human), UniProt P08631). In words: HCK enzyme inhibition assay (FRET, Z'-LYTE). The following applies: read-out: Enzyme Profile: IC50 Values HCK. It is filed as biochemical.
Data set [4] concerns the target cSrc enzyme (Homo sapiens (Human), UniProt P12931). In words: c-SRC enzyme inhibition assay (FRET, Z'-LYTE). The class given is biochemical. Conditions: read-out: Enzyme Profile: IC50 Values cSrc.
In data set [5] the test system is TNFα release in THP-1 cells. In words: LPS-induced TNFα release in THP-1 cells. It is filed as cell-based. Conditions: Homo sapiens; THP-1 cells, LPS 3 μg/mL, 4 hr; read-out: THP1 (LPS) TNFα IC50. As to the method:
The inhibition of TNFα production was calculated at each concentration by comparison with vehicle control.

Data set [6] relates to TNFα release in d-U937 cells. In words: LPS-induced TNFα release in d-U937 cells. It is filed as cell-based. Conditions: Homo sapiens, dU937, LPS 0.1 μg/mL, 4 hr, relative to 10 μg/mL BIRB796, read-out: d-U937 (LPS) TNFα REC50. Summed up: (§1)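 U937 cells made macrophage-like by 48–72 h with PMA (100 ng/mL), then stimulated with LPS (E. coli O111:B4) for 4 h. Supernatant TNFα and IL-8 measured by sandwich ELISA; inhibition versus vehicle control at each concentration, REC50 from concentration-response curve.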

Data set [7] relates to IL-8 release in d-U937 cells. In words: LPS-induced IL-8 release in d-U937 cells. It is filed as cell-based. Conditions: Homo sapiens, dU937; d-U937 cells, LPS 0.1 μg/mL, 4 hr; read-out: d-U937 (LPS) IL-8 IC50. Summed up:
as §1

The test system of data set [8] is ICAM-1 expression in BEAS2B cells. In words: Poly I:C-induced ICAM-1 induction in BEAS2B cells. It is filed as cell-based. The following applies: Homo sapiens, BEAS-2B; BEAS2B cells, poly I:C 1 μg/mL, 18 hr; read-out: BEAS2B (polyIC) ICAM1 IC50. The procedure, abridged:
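Human bronchial epithelial BEAS2B cells pre-incubated 2 hr with test compounds at final concentrations, then transfected with poly I:C (1 μg/mL) using Oligofectamine. Cell-surface ICAM-1 quantified by cell-based ELISA with HRP-conjugated anti-rabbit IgG secondary.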

Data set [9] deals with HRV16. In words: Rhinovirus-titre assay. The class given is cell-based, human rhinovirus. The following applies: Human rhinovirus sp., HRV16; cell not marked b; test compounds 0.04 μg/mL per method (footnote b, 0.2 μg/mL); read-out: HRV titre (inhibitory %): % inhibition observed vs. HRV16 infection control.
Data set [10] has as its system Differentiated U937 cells. In words: MTT assay: cell viability. The class given is cell-based, human. The following applies: 1 μg/ml; for d-U937 MTT Assay 4 h: 5% FCS; for d-U937 MTT Assay 24 h: 10% FCS. Summed up: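 Differentiated U937 cells pre-incubated with compound either 4 hr in 5% FCS or 24 h in 10% FCS, then 1 hr MTT. Formazan dissolved in DMSO, absorbance at 550 nm. Percentage viability loss relative to 0.5% DMSO vehicle; apparent increases appear as negative percentages.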

With `CC(C)(C)c1cc(NC(=O)Nc2ccc(Oc3ccnc4[nH]c(=O)cnc34)c3ccccc23)n(-c2ccc(O)cc2)n1` [Example 16, 1-(3-(tert-Butyl)-1-(4-hydroxyphenyl)-1H-pyrazol-5-yl)-3-(4-((3-oxo-3,4-dihydropyrido[2,3-b]pyrazin-8-yl)oxy)naphthalen-1-yl)urea], the negative logarithm of the IC50 (pIC50) in [1] is 8.40; in data set [2], 7.35; in data set [3], 7.74; in data set [4] it was 8.00; in [5] it was 6.94; in [7], 7.33. Also, the pIC50 in data set [8] is 6.76. The pEC50 in data set [6] was 7.26. The inhibition at 0.04 µg/mL in data set [9] worked out at 8%. Also, in data set [10], the “d-U937 MTT Assay 4 h” value is “− (− and + indicate the result is below and above the no significant effect threshold, respectively (<30% inhibition at a concentration of 1 μg/ml))”. For the same compound, the “d-U937 MTT Assay 24 h” value in data set [10] is “− (− and + indicate the result is below and above the no significant effect threshold, respectively (<30% inhibition at a concentration of 1 μg/ml))”.

Regarding `CC(C)(C)c1cc(NC(=O)Nc2ccc(Oc3ccnc4[nH]c(=O)cnc34)c3ccccc23)n(-c2ccc(CO)cc2)n1` [Example 17, 1-(3-(tert-Butyl)-1-(4-(hydroxymethyl)phenyl)-1H-pyrazol-5-yl)-3-(4-((3-oxo-3,4-dihydropyrido[2,3-b]pyrazin-8-yl)oxy)naphthalen-1-yl)urea], the pIC50 in [1] is 8.15; in [2], 6.50; in [3], 7.62; in data set [4], 7.96; in data set [5], 7.85; in data set [7], 7.62. Further, the pIC50 in [8] is 7.85. For the same compound, in data set [6], the pEC50 was 7.92. In addition, in data set [9], the inhibition at 0.04 µg/mL was determined as 36%. Besides, the “d-U937 MTT Assay 4 h” value in data set [10] is “− (− and + indicate the result is below and above the no significant effect threshold, respectively (<30% inhibition at a concentration of 1 μg/ml))”. Further, in [10], the “d-U937 MTT Assay 24 h” value is “− (− and + indicate the result is below and above the no significant effect threshold, respectively (<30% inhibition at a concentration of 1 μg/ml))”.

Regarding `COc1cc(-n2nc(C(C)(C)C)cc2NC(=O)Nc2ccc(Oc3ccnc4[nH]c(=O)cnc34)c3ccccc23)ccc1CO` [Example 18, 1-(3-(tert-Butyl)-1-(4-(hydroxymethyl)-3-methoxyphenyl)-1H-pyrazol-5-yl)-3-(4-((3-oxo-3,4-dihydropyrido[2,3-b]pyrazin-8-yl)oxy)naphthalen-1-yl)urea], the negative logarithm of the IC50 (pIC50) is 8.30 in [1]; 7.62 in data set [2]; 8.30 in data set [3]; 8.22 in data set [4]; 7.77 in [5]; 8.13 in [7]. Besides, the pIC50 in data set [8] is 7.82. In addition, in [6], the pEC50 was 7.92. Besides, the inhibition at 0.04 µg/mL in data set [9] is 80%. Also, the “d-U937 MTT Assay 4 h” value in data set [10] is “− (− and + indicate the result is below and above the no significant effect threshold, respectively (<30% inhibition at a concentration of 1 μg/ml))”. The “d-U937 MTT Assay 24 h” value in data set [10] was “− (− and + indicate the result is below and above the no significant effect threshold, respectively (<30% inhibition at a concentration of 1 μg/ml))”.

On to `COc1ccc(-n2nc(C(C)(C)C)cc2NC(=O)Nc2ccc(Oc3ccnc4[nH]c(=O)cnc34)c(Cl)c2Cl)cc1` [Example 19, 1-(3-(tert-Butyl)-1-(4-methoxyphenyl)-1H-pyrazol-5-yl)-3-(2,3-dichloro-4-((3-oxo-3,4-dihydropyrido[2,3-b]pyrazin-8-yl)oxy)phenyl)urea], for which the pIC50 was 8.70 in data set [1]; 7.46 in data set [2]; 8.40 in data set [3]; 8.15 in data set [4]; 8.68 in data set [5]; 8.80 in data set [7]. For the same compound, the pIC50 in data set [8] was 9.22. Further, the pEC50 in data set [6] is 8.89. Further, the inhibition at 0.04 µg/mL in data set [9] is 80%. The “d-U937 MTT Assay 4 h” value in data set [10] is “− (− and + indicate the result is below and above the no significant effect threshold, respectively (<30% inhibition at a concentration of 1 μg/ml))”. For the same compound, the “d-U937 MTT Assay 24 h” value in data set [10] was “− (− and + indicate the result is below and above the no significant effect threshold, respectively (<30% inhibition at a concentration of 1 μg/ml))”.

For the compound `COc1ccc(-n2nc(C(C)(C)C)cc2NC(=O)Nc2ccc(Oc3ccnc4[nH]c(=O)cnc34)c3ccccc23)cn1` [Example 20], the pIC50 in data set [1] was 8.22; in data set [2] it was 7.36; in [3], 8.52; in [4], 8.10; in [5], 7.89; in data set [7], 7.80. In data set [8], the negative-log IC50 (pIC50) was 7.68. Moreover, the pEC50 in data set [6] is 8.47. In addition, the inhibition at 0.04 µg/mL in data set [9] was determined as 36%. The “d-U937 MTT Assay 4 h” value in data set [10] was “− (− and + indicate the result is below and above the no significant effect threshold, respectively (<30% inhibition at a concentration of 1 μg/ml))”. In data set [10], the “d-U937 MTT Assay 24 h” value was “− (− and + indicate the result is below and above the no significant effect threshold, respectively (<30% inhibition at a concentration of 1 μg/ml))”.

Regarding `COc1ccc(-n2nc(C(C)(C)C)cc2NC(=O)Nc2ccc(Oc3ncnc4[nH]c(=O)cnc34)c3ccccc23)cc1` [Example 22], the negative-log IC50 (pIC50) in [1] is 7.77; in data set [2], 5.58; in data set [3], 6.34; in data set [4], 6.39; in data set [5], less than 5.76; in data set [7], less than 5.76. The pIC50 in data set [8] was less than 6.76. The pEC50 in [6] was less than 5.76. In data set [9], the inhibition at 0.04 µg/mL was 8%. In addition, the “d-U937 MTT Assay 4 h” value in [10] was “− (− and + indicate the result is below and above the no significant effect threshold, respectively (<30% inhibition at a concentration of 1 μg/ml))”. For the same compound, in data set [10], the “d-U937 MTT Assay 24 h” value was “− (− and + indicate the result is below and above the no significant effect threshold, respectively (<30% inhibition at a concentration of 1 μg/ml))”.

For `COc1ccc(-n2nc(C(C)(C)C)cc2NC(=O)Nc2ccc(Oc3ccnc4[nH]c(=O)n(C)c34)c3ccccc23)cn1` [Example 24, 1-(3-(tert-butyl)-1-(6-methoxypyridin-3-yl)-1H-pyrazol-5-yl)-3-(4-((1-methyl-2-oxo-2,3-dihydro-1H-imidazo[4,5-b]pyridin-7-yl)oxy)naphthalen-1-yl)urea], the negative logarithm of the IC50 (pIC50) in data set [1] is 8.15; in data set [2] it was 6.90; in data set [3] it was 8.30; in [4], 7.80; in [5] it was 8.36; in data set [7], 7.96. For the same compound, the negative-log IC50 (pIC50) in [8] is 7.92. In data set [6], the pEC50 was 8.89. Besides, the inhibition at 0.04 µg/mL in [9] came to 91%. The “d-U937 MTT Assay 4 h” value in data set [10] was “− (− and + indicate the result is below and above the no significant effect threshold, respectively (<30% inhibition at a concentration of 1 μg/ml))”. Moreover, the “d-U937 MTT Assay 24 h” value in data set [10] was “− (− and + indicate the result is below and above the no significant effect threshold, respectively (<30% inhibition at a concentration of 1 μg/ml))”.

For `COc1ccc(-n2nc(C(C)(C)C)cc2NC(=O)Nc2ccc(Oc3ccnc4[nH]c(=O)cnc34)c3ccccc23)cc1` [Example 25, 1-(3-(tert-butyl)-1-(4-methoxyphenyl)-1H-pyrazol-5-yl)-3-(4-((3-oxo-3,4-dihydropyrido[2,3-b]pyrazin-8-yl)oxy)naphthalen-1-yl)urea], the negative logarithm of the IC50 (pIC50) was 8.40 in data set [1]; 7.30 in data set [2]; 8.30 in data set [3]; 7.92 in data set [4]; 8.80 in data set [5]; 8.09 in [7]. Moreover, the pIC50 in data set [8] is 8.08. Further, the pEC50 in data set [6] is 8.74. For the same compound, in data set [9], the inhibition at 0.04 µg/mL was determined as 36%. The “d-U937 MTT Assay 4 h” value in data set [10] was “− (− and + indicate the result is below and above the no significant effect threshold, respectively (<30% inhibition at a concentration of 1 μg/ml))”. The “d-U937 MTT Assay 24 h” value in data set [10] was “− (− and + indicate the result is below and above the no significant effect threshold, respectively (<30% inhibition at a concentration of 1 μg/ml))”.
